Reference: ChEMBL document CHEMBL1129102, “Design, synthesis, and evaluation of fibrinogen inhibitors, -(p-amidinophenoxy) alkanoylaspartic acid derivatives” (Bioorg Med Chem Lett, 1996)

Target: Integrin alpha-IIb/beta-3 (Homo sapiens, UniProt P05106+P08514)
Experiment: Inhibition of human platelet adhesion to fibrinogen

Sequence of Integrin alpha-IIb/beta-3 (P05106 27-788 limits assumed): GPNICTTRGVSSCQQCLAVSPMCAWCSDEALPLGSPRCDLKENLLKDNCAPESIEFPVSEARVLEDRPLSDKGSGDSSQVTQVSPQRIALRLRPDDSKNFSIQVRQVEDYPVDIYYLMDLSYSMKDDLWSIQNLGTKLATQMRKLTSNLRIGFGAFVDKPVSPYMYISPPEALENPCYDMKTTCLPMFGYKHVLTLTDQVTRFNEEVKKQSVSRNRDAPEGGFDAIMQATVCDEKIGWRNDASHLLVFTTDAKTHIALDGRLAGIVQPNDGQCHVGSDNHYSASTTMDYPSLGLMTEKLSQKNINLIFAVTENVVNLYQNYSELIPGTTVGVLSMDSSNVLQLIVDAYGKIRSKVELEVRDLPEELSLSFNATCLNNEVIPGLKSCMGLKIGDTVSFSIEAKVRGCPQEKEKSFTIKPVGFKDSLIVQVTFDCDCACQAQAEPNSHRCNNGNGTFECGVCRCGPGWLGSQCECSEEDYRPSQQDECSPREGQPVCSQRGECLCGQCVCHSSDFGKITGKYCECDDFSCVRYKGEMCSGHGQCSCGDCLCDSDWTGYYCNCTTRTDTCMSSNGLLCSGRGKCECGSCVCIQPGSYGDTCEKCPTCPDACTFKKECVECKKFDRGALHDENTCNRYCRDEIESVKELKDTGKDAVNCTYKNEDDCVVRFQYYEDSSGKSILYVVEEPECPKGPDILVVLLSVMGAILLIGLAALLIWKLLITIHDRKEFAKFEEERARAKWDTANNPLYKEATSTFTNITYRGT
Sequence of Integrin alpha-IIb/beta-3 (P08514 32-887 limits assumed): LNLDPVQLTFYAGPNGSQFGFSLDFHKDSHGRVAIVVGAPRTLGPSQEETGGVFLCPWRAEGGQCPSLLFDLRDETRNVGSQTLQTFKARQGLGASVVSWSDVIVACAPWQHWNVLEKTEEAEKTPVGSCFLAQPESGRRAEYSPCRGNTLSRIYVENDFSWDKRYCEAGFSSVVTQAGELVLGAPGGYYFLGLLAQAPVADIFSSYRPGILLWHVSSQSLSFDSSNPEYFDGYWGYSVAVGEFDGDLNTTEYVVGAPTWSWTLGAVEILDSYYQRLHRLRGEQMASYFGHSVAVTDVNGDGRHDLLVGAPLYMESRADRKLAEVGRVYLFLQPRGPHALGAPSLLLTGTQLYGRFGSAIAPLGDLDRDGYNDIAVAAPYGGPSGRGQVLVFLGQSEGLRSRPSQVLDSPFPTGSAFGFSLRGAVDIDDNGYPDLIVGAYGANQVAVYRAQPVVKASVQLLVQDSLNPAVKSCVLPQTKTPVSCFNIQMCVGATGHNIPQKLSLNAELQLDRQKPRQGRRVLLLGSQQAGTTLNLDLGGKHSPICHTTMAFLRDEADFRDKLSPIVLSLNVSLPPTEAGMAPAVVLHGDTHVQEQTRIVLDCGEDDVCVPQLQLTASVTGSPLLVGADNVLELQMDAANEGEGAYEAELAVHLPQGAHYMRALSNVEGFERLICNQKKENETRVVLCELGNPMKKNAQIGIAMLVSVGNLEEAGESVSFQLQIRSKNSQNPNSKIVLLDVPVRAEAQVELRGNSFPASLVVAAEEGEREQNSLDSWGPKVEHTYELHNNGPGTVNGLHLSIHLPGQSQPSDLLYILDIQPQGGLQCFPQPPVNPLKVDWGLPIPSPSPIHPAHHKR
Sequence of Integrin alpha-IIb/beta-3 (P08514 891-1039 limits assumed): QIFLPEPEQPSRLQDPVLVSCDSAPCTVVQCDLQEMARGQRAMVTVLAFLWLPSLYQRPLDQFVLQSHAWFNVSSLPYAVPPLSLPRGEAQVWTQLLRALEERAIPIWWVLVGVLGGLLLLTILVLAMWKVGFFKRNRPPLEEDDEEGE

IC50 | SMILES
230 nM | CC(C)[C@H](NC(=O)[C@H](CC(=O)O)NC(=O)CCCCOc1ccc(C(=N)N)cc1)C(=O)O
640 nM | N=C(N)c1ccc(OCCCCC(=O)N[C@@H](CC(=O)O)C(=O)N[C@@H](Cc2ccc(O)cc2)C(=O)O)cc1
270 nM | CN(C(=O)[C@H](CC(=O)O)NC(=O)CCCCOc1ccc(C(=N)N)cc1)[C@@H](Cc1ccc(O)cc1)C(=O)O
88 nM | CC(C)[C@H](NC(=O)[C@H](CC(=O)O)NC(=O)CCCOc1ccc(C(=N)N)cc1)C(=O)O
